Assays:
Type in all cases: functional, Homo sapiens
Set-up in all cases: dose or concentration left out as unconfirmed
Colon cancer organoid [1] = experiment: Optimized Dual-Glo assay to identify co-culture induced drug vulnerabilities using donated chemical probes and chemogenomics kinase set in O14 CRC organoid and F14 CAF mono and co-culture. […] Cell viability is reported both mono and co-culture models.
Colon cancer organoid [2] = experiment: Optimized Dual-Glo assay to identify co-culture induced drug vulnerabilities using donated chemical probes and chemogenomics kinase set in O20 CRC organoid and F20 CAF mono and co-culture. […] Cell viability is reported both mono and co-culture models.
Colon cancer organoid [3] = experiment: Optimized Dual-Glo assay to identify co-culture induced drug vulnerabilities using donated chemical probes and chemogenomics kinase set in O06 CRC organoid and F06 CAF mono and co-culture. […] Cell viability is reported both mono and co-culture models.
[4] = Culture type Co-Culture, Transduced with Lucferase2-P2A-EGFP lentivirus
[5] = Culture type Co-Culture, Transduced with Renilla-dsRed lentivirus
[6] = Culture type Mono-Culture, Transduced with Lucferase2-P2A-EGFP lentivirus
[7] = Culture type Mono-Culture, Transduced with Renilla-dsRed lentivirus

## CC(=O)Nc1c(C(C)=O)c(=O)n(C)c2nc(-c3ccc(Cl)cc3Cl)c(-c3ccc(Cl)cc3)cc12 [NAPHTHYRIDINONE]
Colon cancer organoid [1]; [4]
  Cell Viability: 70.6421%
Colon cancer organoid [1]; [5]
  Cell Viability: 119.606%
Colon cancer organoid [1]; [6]
  Cell Viability: 87.1663%
Colon cancer organoid [1]; [7]
  Cell Viability: 99.5027%
Colon cancer organoid [2]; [4]
  Cell Viability: 105.882%
Colon cancer organoid [2]; [5]
  Cell Viability: 98.6055%
Colon cancer organoid [2]; [6]
  Cell Viability: 84.0394%
Colon cancer organoid [2]; [7]
  Cell Viability: 82.777%
Colon cancer organoid [3]; [4]
  Cell Viability: 144.905%
Colon cancer organoid [3]; [5]
  Cell Viability: 170.157%
Colon cancer organoid [3]; [6]
  Cell Viability: 100.862%
Colon cancer organoid [3]; [7]
  Cell Viability: 101.001%

## CO[C@@H](C)c1c(Nc2ccc([C@@H](N(C)C(=O)C3CCS(=O)(=O)CC3)C(F)(F)F)cc2)cnc2cc(Cl)nn12 [NVS-MALT1-C]
Colon cancer organoid [1]; [4]
  Cell Viability: 62.8563%
Colon cancer organoid [1]; [5]
  Cell Viability: 80.6398%
Colon cancer organoid [1]; [6]
  Cell Viability: 85.3196%
Colon cancer organoid [1]; [7]
  Cell Viability: 104.147%
Colon cancer organoid [2]; [4]
  Cell Viability: 83.6241%
Colon cancer organoid [2]; [5]
  Cell Viability: 108.215%
Colon cancer organoid [2]; [6]
  Cell Viability: 61.6775%
Colon cancer organoid [2]; [7]
  Cell Viability: 90.6676%
Colon cancer organoid [3]; [4]
  Cell Viability: 50.6957%
Colon cancer organoid [3]; [5]
  Cell Viability: 73.6522%
Colon cancer organoid [3]; [6]
  Cell Viability: 67.3669%
Colon cancer organoid [3]; [7]
  Cell Viability: 85.1011%

## CO[C@@H](C)c1c(Nc2ccc([C@H](N(C)C(=O)C3CCS(=O)(=O)CC3)C(F)(F)F)cc2)cnc2cc(Cl)nn12 [NVS-MALT1]
Colon cancer organoid [1]; [4]
  Cell Viability: 62.6088%
Colon cancer organoid [1]; [5]
  Cell Viability: 105.477%
Colon cancer organoid [1]; [6]
  Cell Viability: 102.315%
Colon cancer organoid [1]; [7]
  Cell Viability: 101.932%
Colon cancer organoid [2]; [4]
  Cell Viability: 87.8486%
Colon cancer organoid [2]; [5]
  Cell Viability: 98.697%
Colon cancer organoid [2]; [6]
  Cell Viability: 70.7423%
Colon cancer organoid [2]; [7]
  Cell Viability: 82.2292%
Colon cancer organoid [3]; [4]
  Cell Viability: 54.3511%
Colon cancer organoid [3]; [5]
  Cell Viability: 83.5282%
Colon cancer organoid [3]; [6]
  Cell Viability: 80.0936%
Colon cancer organoid [3]; [7]
  Cell Viability: 98.6896%

## COc1ncc(-c2ccc3nccc(-c4ccnnc4)c3c2)cc1NS(=O)(=O)c1ccc(F)cc1F [OMIPALISIB]
Colon cancer organoid [1]; [4]
  Cell Viability: 1.562%
Colon cancer organoid [1]; [5]
  Cell Viability: 61.2077%
Colon cancer organoid [1]; [6]
  Cell Viability: 2.831%
Colon cancer organoid [1]; [7]
  Cell Viability: 44.5325%
Colon cancer organoid [2]; [4]
  Cell Viability: 2.277%
Colon cancer organoid [2]; [5]
  Cell Viability: 94.8256%
Colon cancer organoid [2]; [6]
  Cell Viability: 1.422%
Colon cancer organoid [2]; [7]
  Cell Viability: 74.6652%
Colon cancer organoid [3]; [4]
  Cell Viability: 2.362%
Colon cancer organoid [3]; [5]
  Cell Viability: 34.7423%
Colon cancer organoid [3]; [6]
  Cell Viability: 3.227%
Colon cancer organoid [3]; [7]
  Cell Viability: 27.5983%

## CN1CCN(c2ccc(OC(F)(F)F)c(Nc3ncc4c(n3)-c3c(c(C(N)=O)nn3CCO)CC4)c2)CC1 [ONVANSERTIB]
Colon cancer organoid [1]; [4]
  Cell Viability: 3.512%
Colon cancer organoid [1]; [5]
  Cell Viability: 162.986%
Colon cancer organoid [1]; [6]
  Cell Viability: 6.811%
Colon cancer organoid [1]; [7]
  Cell Viability: 81.4434%
Colon cancer organoid [2]; [4]
  Cell Viability: 2%
Colon cancer organoid [2]; [5]
  Cell Viability: 184.086%
Colon cancer organoid [2]; [6]
  Cell Viability: 2.415%
Colon cancer organoid [2]; [7]
  Cell Viability: 100.341%
Colon cancer organoid [3]; [4]
  Cell Viability: 2.834%
Colon cancer organoid [3]; [5]
  Cell Viability: 160.245%
Colon cancer organoid [3]; [6]
  Cell Viability: 4.275%
Colon cancer organoid [3]; [7]
  Cell Viability: 93.5315%

## Nc1nc(NCc2ccccc2)nc(-c2ccccc2CO)n1 [Ogerin]
Colon cancer organoid [1]; [4]
  Cell Viability: 77.8704%
Colon cancer organoid [1]; [5]
  Cell Viability: 129.106%
Colon cancer organoid [1]; [6]
  Cell Viability: 105.546%
Colon cancer organoid [1]; [7]
  Cell Viability: 105.714%
Colon cancer organoid [2]; [4]
  Cell Viability: 80.9307%
Colon cancer organoid [2]; [5]
  Cell Viability: 98.0569%
Colon cancer organoid [2]; [6]
  Cell Viability: 82.507%
Colon cancer organoid [2]; [7]
  Cell Viability: 92.5232%
Colon cancer organoid [3]; [4]
  Cell Viability: 100.001%
Colon cancer organoid [3]; [5]
  Cell Viability: 107.856%
Colon cancer organoid [3]; [6]
  Cell Viability: 82.0596%
Colon cancer organoid [3]; [7]
  Cell Viability: 96.3715%

## CC(=O)NCC(=O)N1[C@@H]2CC[C@H]1c1ccc(Nc3ncc(C(F)(F)F)c(NC4CCC4)n3)cc12 [PF-03814735]
Colon cancer organoid [1]; [4]
  Cell Viability: 21.4424%
Colon cancer organoid [1]; [5]
  Cell Viability: 92.7993%
Colon cancer organoid [1]; [6]
  Cell Viability: 23.2786%
Colon cancer organoid [1]; [7]
  Cell Viability: 69.2613%
Colon cancer organoid [2]; [4]
  Cell Viability: 4.585%
Colon cancer organoid [2]; [5]
  Cell Viability: 155.761%
Colon cancer organoid [2]; [6]
  Cell Viability: 7.993%
Colon cancer organoid [2]; [7]
  Cell Viability: 63.4074%
Colon cancer organoid [3]; [4]
  Cell Viability: 12.5382%
Colon cancer organoid [3]; [5]
  Cell Viability: 132.747%
Colon cancer organoid [3]; [6]
  Cell Viability: 7.137%
Colon cancer organoid [3]; [7]
  Cell Viability: 42.3421%

## OCCn1cc(-c2cnc3nnn(Cc4ccc5ncccc5c4)c3n2)cn1 [PF-04217903]
Colon cancer organoid [1]; [4]
  Cell Viability: 71.8183%
Colon cancer organoid [1]; [5]
  Cell Viability: 123.95%
Colon cancer organoid [1]; [6]
  Cell Viability: 91.8486%
Colon cancer organoid [1]; [7]
  Cell Viability: 91.0833%
Colon cancer organoid [2]; [4]
  Cell Viability: 121.611%
Colon cancer organoid [2]; [5]
  Cell Viability: 97.2338%
Colon cancer organoid [2]; [6]
  Cell Viability: 113.154%
Colon cancer organoid [2]; [7]
  Cell Viability: 101.829%
Colon cancer organoid [3]; [4]
  Cell Viability: 88.0795%
Colon cancer organoid [3]; [5]
  Cell Viability: 107.387%
Colon cancer organoid [3]; [6]
  Cell Viability: 104.073%
Colon cancer organoid [3]; [7]
  Cell Viability: 94.3108%

## C[C@H](c1ccc(F)cc1)N(Cc1cccc(C(=O)O)c1)C(=O)c1cnc2ccccc2c1 [PF-05105679]
Colon cancer organoid [1]; [4]
  Cell Viability: 81.4426%
Colon cancer organoid [1]; [5]
  Cell Viability: 118.111%
Colon cancer organoid [1]; [6]
  Cell Viability: 74.3119%
Colon cancer organoid [1]; [7]
  Cell Viability: 99.7573%
Colon cancer organoid [2]; [4]
  Cell Viability: 143.937%
Colon cancer organoid [2]; [5]
  Cell Viability: 111.508%
Colon cancer organoid [2]; [6]
  Cell Viability: 109.64%
Colon cancer organoid [2]; [7]
  Cell Viability: 98.1235%
Colon cancer organoid [3]; [4]
  Cell Viability: 133.625%
Colon cancer organoid [3]; [5]
  Cell Viability: 152.049%
Colon cancer organoid [3]; [6]
  Cell Viability: 106.722%
Colon cancer organoid [3]; [7]
  Cell Viability: 91.4083%

## C[C@H](c1ccc(F)cc1)N(Cc1ccc(Cl)c(C(=O)O)c1)C(=O)c1cnc2ccccc2c1 [PF-05257137]
Colon cancer organoid [1]; [4]
  Cell Viability: 77.6621%
Colon cancer organoid [1]; [5]
  Cell Viability: 111.229%
Colon cancer organoid [1]; [6]
  Cell Viability: 120.37%
Colon cancer organoid [1]; [7]
  Cell Viability: 101.269%
Colon cancer organoid [2]; [4]
  Cell Viability: 147.232%
Colon cancer organoid [2]; [5]
  Cell Viability: 103.742%
Colon cancer organoid [2]; [6]
  Cell Viability: 109.057%
Colon cancer organoid [2]; [7]
  Cell Viability: 106.822%
Colon cancer organoid [3]; [4]
  Cell Viability: 116.801%
Colon cancer organoid [3]; [5]
  Cell Viability: 128.047%
Colon cancer organoid [3]; [6]
  Cell Viability: 124.519%
Colon cancer organoid [3]; [7]
  Cell Viability: 88.8687%

## COc1ncc(F)cc1CNc1ccc(Cc2c[nH]c3ncc(C)cc23)c(F)n1 [PLX-5622]
Colon cancer organoid [1]; [4]
  Cell Viability: 95.8839%
Colon cancer organoid [1]; [5]
  Cell Viability: 46.3569%
Colon cancer organoid [1]; [6]
  Cell Viability: 130.226%
Colon cancer organoid [1]; [7]
  Cell Viability: 44.2586%
Colon cancer organoid [2]; [4]
  Cell Viability: 205.726%
Colon cancer organoid [2]; [5]
  Cell Viability: 55.6932%
Colon cancer organoid [2]; [6]
  Cell Viability: 133.198%
Colon cancer organoid [2]; [7]
  Cell Viability: 66.7491%
Colon cancer organoid [3]; [4]
  Cell Viability: 82.7626%
Colon cancer organoid [3]; [5]
  Cell Viability: 63.3822%
Colon cancer organoid [3]; [6]
  Cell Viability: 93.414%
Colon cancer organoid [3]; [7]
  Cell Viability: 61.0678%

## Cc1noc(C)c1-c1cnc2c(-c3ccc(C(=O)O)cc3)cn([C@@H](C)c3ccccn3)c2c1 [PLX-51107]
Colon cancer organoid [1]; [4]
  Cell Viability: 32.5617%
Colon cancer organoid [1]; [5]
  Cell Viability: 348.195%
Colon cancer organoid [1]; [6]
  Cell Viability: 30.1969%
Colon cancer organoid [1]; [7]
  Cell Viability: 207.472%
Colon cancer organoid [2]; [4]
  Cell Viability: 17.6563%
Colon cancer organoid [2]; [5]
  Cell Viability: 177.825%
Colon cancer organoid [2]; [6]
  Cell Viability: 24.073%
Colon cancer organoid [2]; [7]
  Cell Viability: 120.563%
Colon cancer organoid [3]; [4]
  Cell Viability: 26.8486%
Colon cancer organoid [3]; [5]
  Cell Viability: 312.702%
Colon cancer organoid [3]; [6]
  Cell Viability: 23.3668%
Colon cancer organoid [3]; [7]
  Cell Viability: 265.011%

## Cn1cc(CNCC2CCN(c3ncc(C(=O)NO)cn3)CC2)c2ccccc21 [QUISINOSTAT]
Colon cancer organoid [1]; [4]
  Cell Viability: 0.9193%
Colon cancer organoid [1]; [5]
  Cell Viability: 88.4975%
Colon cancer organoid [1]; [6]
  Cell Viability: 0.7655%
Colon cancer organoid [1]; [7]
  Cell Viability: 72.0368%
Colon cancer organoid [2]; [4]
  Cell Viability: 1.342%
Colon cancer organoid [2]; [5]
  Cell Viability: 37.1921%
Colon cancer organoid [2]; [6]
  Cell Viability: 2.078%
Colon cancer organoid [2]; [7]
  Cell Viability: 3.907%
Colon cancer organoid [3]; [4]
  Cell Viability: 1.095%
Colon cancer organoid [3]; [5]
  Cell Viability: 190.694%
Colon cancer organoid [3]; [6]
  Cell Viability: 6.147%
Colon cancer organoid [3]; [7]
  Cell Viability: 20.2291%

## CC(C)(C)c1cc(NC(=O)Nc2ccc(-c3cn4c(n3)sc3cc(OCCN5CCOCC5)ccc34)cc2)no1 [QUIZARTINIB]
Colon cancer organoid [1]; [4]
  Cell Viability: 40.6861%
Colon cancer organoid [1]; [5]
  Cell Viability: 210.95%
Colon cancer organoid [1]; [6]
  Cell Viability: 46.4384%
Colon cancer organoid [1]; [7]
  Cell Viability: 89.2922%
Colon cancer organoid [2]; [4]
  Cell Viability: 58.7644%
Colon cancer organoid [2]; [5]
  Cell Viability: 111.29%
Colon cancer organoid [2]; [6]
  Cell Viability: 48.0043%
Colon cancer organoid [2]; [7]
  Cell Viability: 98.7475%
Colon cancer organoid [3]; [4]
  Cell Viability: 26.1053%
Colon cancer organoid [3]; [5]
  Cell Viability: 134.448%
Colon cancer organoid [3]; [6]
  Cell Viability: 20.7828%
Colon cancer organoid [3]; [7]
  Cell Viability: 88.706%
